Assay: Ki apparent against Clostridium perfringens neuraminidase was determined
Conditions: read-out: Ki app

CC(=O)NC1C(O)CC(Oc2ccccc2C(F)F)(C(=O)O)OC1[C@H](O)[C@H](O)CO (stereo partly specified)
Ki: 150 µM

From ChEMBL document CHEMBL1126357, “Synthesis of sodium salt of ortho-(difluoromethyl)phenyl--ketoside of N-acetylneuraminic acid : a mechanism-based inhibitor of Clostridium perfringens neuraminidase” (Bioorg Med Chem Lett, 1992)
